Source: patent US6150126A, “Daphnia reproductive bioassay for testing toxicity of aqueous samples and presence of an endocrine disrupter” (Wisconsin Alumni Research Foundation, priority 1998, dated 2000)
Like-named read-outs stand apart in the source and are kept apart here.

Legend:
[1] = tested on: retinoid X receptors; conditions: cited from earlier work
[2] = tested on: Daphnia galeata mendotae Wingra CDF-1 clone; conditions: in vivo
[3] = tested on: Daphnia galeata mendotae (CDF-1 clone); conditions: in vivo
[4] = tested on: vertebrate systems; conditions: cited from earlier work
[5] = tested on: Daphnia; conditions: in vivo; cited from earlier work
[6] = tested on: Daphnia; conditions: in vivo; cited from earlier work; remark: listed apart in the source
[7] = tested on: Daphnia; conditions: in vivo, cited from earlier work
[8] = tested on: Daphnia carinata; conditions: in vivo; cited from earlier work
[9] = tested on: Daphnia galeata-mendotae (clone CDF-1); conditions: in vivo
[10] = tested on: Daphnia; conditions: in vivo, 48 h
[11] = tested on: fish, mammals and birds; conditions: cited from earlier work
[12] = tested on: D. magna; conditions: daphnia, in vivo, cited from earlier work
[13] = tested on: D. magna; conditions: daphnia, in vivo; cited from earlier work
[14] = tested on: Daphnia; conditions: in vivo; cited from earlier work; remark: listed apart in the source

COC(C)(C)CCC[C@H](C)C/C=C/C(C)=C/C(=O)OC(C)C (racemic) [methoprene]
Gene transcription in mammals via retinoid X receptors [1]: can stimulate gene transcription in mammals by activating retinoid X receptors

ClC1=C(Cl)[C@]2(Cl)[C@@H]3[C@@H]4C[C@@H]([C@H]5O[C@@H]45)[C@@H]3[C@@]1(Cl)C2(Cl)Cl [Dieldrin, dieldrin]
Effect versus controls (sex ratio, males) [2]: no difference
Concentration of no effect on sex ratio / above which sex ratio is reduced ([3]; daphnia): about 30 ppb
X intercept of regression line of sex ratio index vs log dieldrin ([3]; daphnia): 31 ppb
Adult survival or clutch size, effect [3]: Neither insecticide significantly affected adult survival or clutch size
Endocrine disruption activity [3]: shows endocrine disruption activity in Daphnia
Morphological abnormalities [3]: Neither insecticide caused morphological abnormalities
Regression line, sex ratio index (Y) vs log ppb dieldrin (X) [3]: Y=-0.0195X+0.299
Estrogenicity [4]: weakly estrogenic
Concentration below which little or no effect on population growth rate [5]: about 220 ppb
Effect on sex ratio [6]: no effect of dieldrin on sex ratio

O=S1OCC2C(CO1)C1(Cl)C(Cl)=C(Cl)C2(Cl)C1(Cl)Cl (stereo not drawn) [Endosulfan, endosulfan]
Effect versus controls (sex ratio, males) [2]: a tendency for a reduction of males
Adult survival or clutch size, effect [3]: Neither insecticide significantly affected adult survival or clutch size
Morphological abnormalities [3]: Neither insecticide caused morphological abnormalities
Sex ratio, effect [3]: No endosulfan effect was observed
Estrogenicity [4]: weakly estrogenic
Lowest concentration with reported morphological changes ([7]; daphnia): 0.1 μgL^-1
Concentration affecting Daphnia population growth [7]: about 120 ppb
Concentration reducing filtration and assimilation rates [7]: 440-600 ppb
Concentrations reducing body length and weight, egg mass and brood size [8]: 40-160 ppb

nonylphenol
Live young with deformity [9]: 11%
Population growth rate r [9]: nonlinear pattern
Survival [9]: low survival
Mortality [10]: 100%
Estrogenicity [11]: estrogenic to fish, mammals and birds
Chronic LC50 ([12]; 168 h): 0.12 µg/mL
Chronic LC50 ([12]; 336 h): 0.12 µg/mL
Chronic LC50 ([12]; 504 h): 0.1 µg/mL
No-observed effect concentration (NOEC) [13]: 24 μgL-L^-1
Developmental deformity [14]: cause a characteristic deformity
